Measurements as given in the supplement of paper PMC10307832.

Legend:
Experiment in all cases: relative viability (nuclei count vs DMSO), 5 days (fraction); higher = more cells survive
Tozasertib + Pictilisib = compound: Cc1cc(Nc2cc(N3CCN(C)CC3)nc(Sc3ccc(NC(=O)C4CC4)cc3)n2)n[nH]1 [Tozasertib] + CS(=O)(=O)N1CCN(Cc2cc3nc(-c4cccc5[nH]ncc45)nc(N4CCOCC4)c3s2)CC1 [Pictilisib] (partner 1 µM)
Method in brief: (§1)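 One day after seeding in 1536-well plates, lung cancer cell lines were dosed by pin tool. Dosing was either single-drug or a fixed anchor-drug dose plus five library-drug doses (not always all listed) in √10 steps. After 5 days, nuclei were stained in one fix-and-stain step and counted on 4× images, and relative viability is the nuclei count of treated wells over that of vehicle wells, given as the median of duplicate plates.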

Tozasertib + Luminespib = compound: Cc1cc(Nc2cc(N3CCN(C)CC3)nc(Sc3ccc(NC(=O)C4CC4)cc3)n2)n[nH]1 [Tozasertib] + CCNC(=O)c1noc(-c2cc(C(C)C)c(O)cc2O)c1-c1ccc(CN2CCOCC2)cc1 [Luminespib] (partner 0.01 µM)
Method in brief: as §1

Tozasertib + Alpelisib = compound: Cc1cc(Nc2cc(N3CCN(C)CC3)nc(Sc3ccc(NC(=O)C4CC4)cc3)n2)n[nH]1 [Tozasertib] + Cc1nc(NC(=O)N2CCC[C@H]2C(N)=O)sc1-c1ccnc(C(C)(C)C(F)(F)F)c1 [Alpelisib] (partner 2 µM)
Method in brief: as §1

Tozasertib + Olaparib = compound: Cc1cc(Nc2cc(N3CCN(C)CC3)nc(Sc3ccc(NC(=O)C4CC4)cc3)n2)n[nH]1 [Tozasertib] + O=C(c1cc(Cc2n[nH]c(=O)c3ccccc23)ccc1F)N1CCN(C(=O)C2CC2)CC1 [Olaparib] (partner 8 µM)
Method in brief: as §1

| Cell Line | relative viability (Tozasertib + Pictilisib; first compound 0.004 µM) | relative viability (Tozasertib + Pictilisib; first compound 0.01265 µM) | relative viability (Tozasertib + Pictilisib; first compound 0.04 µM) | relative viability (Tozasertib + Pictilisib; first compound 0.1265 µM) | relative viability (Tozasertib + Luminespib; first compound 0.004 µM) | relative viability (Tozasertib + Luminespib; first compound 0.01265 µM) | relative viability (Tozasertib + Luminespib; first compound 0.04 µM) | relative viability (Tozasertib + Luminespib; first compound 0.1265 µM) | relative viability (Tozasertib + Alpelisib; first compound 0.004 µM) | relative viability (Tozasertib + Alpelisib; first compound 0.01265 µM) | relative viability (Tozasertib + Alpelisib; first compound 0.04 µM) | relative viability (Tozasertib + Olaparib; first compound 0.004 µM) | relative viability (Tozasertib + Olaparib; first compound 0.01265 µM) | relative viability (Tozasertib + Olaparib; first compound 0.04 µM) | relative viability (Tozasertib + Olaparib; first compound 0.1265 µM) | relative viability (Tozasertib + Alpelisib; first compound 0.1265 µM) |
| --- | --- | --- | --- | --- | --- | --- | --- | --- | --- | --- | --- | --- | --- | --- | --- | --- |
| HCC-44 | 0.596 | 0.603 | 0.67 | 0.409 | 1.04 | 0.829 | 0.565 | 0.796 | 0.779 | 0.773 | 0.836 | 0.961 | 0.924 | 1.02 | 0.914 |  |
| HCC-827 | 0.872 | 0.999 | 1.14 | 0.918 | 0.281 | 0.854 | 0.714 | 0.766 | 1.03 | 0.931 | 1.06 | 0.684 | 0.577 | 0.723 | 0.624 | 0.954 |
| HOP-62 | 0.741 | 0.605 | 0.926 | 0.565 | 0.953 | 0.876 | 0.912 | 0.976 | 1.05 | 0.887 | 0.937 | 0.699 | 0.436 | 0.458 | 0.288 | 0.937 |
| LC-2-ad | 0.505 | 0.516 | 0.427 | 0.127 | 1.09 | 0.95 | 0.821 | 0.544 | 0.881 | 0.82 | 1.02 | 0.732 | 0.677 | 0.602 | 0.608 | 0.354 |
| LCLC-97TM1 |  | 0.181 | 0.222 | 0.11 | 0.895 |  | 0.724 | 0.615 |  | 0.247 | 0.32 | 0.53 | 0.381 | 0.335 | 0.231 | 0.207 |
| LCLC-103H | 0.694 | 0.568 | 0.634 | 0.498 | 0.935 | 1.05 | 1.08 | 0.72 | 0.817 | 0.895 | 0.952 | 0.782 | 0.811 | 0.772 | 0.734 | 0.994 |
| LK-2 | 0.715 |  | 0.61 | 0.359 | 0.204 | 0.195 | 0.166 | 0.172 | 1.33 |  | 1.12 | 0.753 | 0.715 | 0.77 | 0.326 | 0.306 |
| LOU-NH91 | 0.541 | 0.526 | 0.513 | 0.48 |  | 0.354 | 0.33 | 0.336 |  | 0.736 | 0.731 | 0.781 | 0.916 | 0.937 | 0.922 | 0.694 |
| LU99A | 0.338 | 0.339 | 0.3 | 0.216 | 0.225 | 0.249 | 0.27 | 0.218 | 0.648 | 0.507 | 0.463 | 0.251 | 0.212 | 0.26 | 0.251 | 0.267 |
| LXF-289 | 0.835 | 0.828 | 0.778 | 0.789 | 0.573 | 0.51 | 0.664 | 0.399 |  | 1.05 | 0.955 | 1.08 | 0.942 | 0.792 | 0.644 | 0.615 |
| NCI-H23 | 0.566 | 0.555 | 0.541 | 0.337 | 0.198 | 0.221 | 0.183 | 0.198 | 0.638 | 0.578 | 0.781 | 0.34 | 0.29 | 0.269 | 0.182 | 0.361 |
| NCI-H322M | 0.485 | 0.474 | 0.576 | 0.419 | 0.805 | 0.996 | 0.851 | 0.564 | 0.732 | 0.749 | 0.904 | 0.788 | 0.843 | 0.863 | 0.559 | 0.848 |
| NCI-H358 | 0.353 | 0.263 | 0.366 | 0.178 | 0.265 | 0.394 | 0.382 | 0.234 | 1.08 | 0.863 | 0.83 | 0.555 | 0.562 | 0.56 | 0.187 | 0.182 |
| NCI-H441 | 0.431 | 0.447 | 0.477 | 0.304 | 0.361 | 0.323 | 0.312 | 0.261 | 0.69 | 0.69 | 0.758 | 0.625 | 0.425 | 0.49 | 0.459 | 0.541 |
| NCI-H460 | 0.337 | 0.346 | 0.389 | 0.319 | 0.031 | 0.0376 | 0.0324 | 0.0295 | 0.544 | 0.435 | 0.449 | 0.399 | 0.336 | 0.372 | 0.3 | 0.293 |
| NCI-H520 | 0.315 | 0.268 | 0.288 | 0.186 | 0.193 | 0.219 | 0.219 | 0.233 | 0.945 | 0.844 | 0.889 | 0.285 | 0.316 |  | 0.272 | 0.864 |
| NCI-H596 | 0.399 | 0.395 | 0.395 | 0.332 | 0.957 | 0.96 | 1.09 | 0.901 |  | 0.451 | 0.519 | 0.605 | 0.769 | 0.732 | 0.525 | 0.439 |
| NCI-H647 | 0.442 |  | 0.476 | 0.171 | 0.24 | 0.152 | 0.186 | 0.194 | 1.43 | 0.915 | 1.06 | 0.744 | 0.445 | 0.501 | 0.369 | 0.371 |
| NCI-H650 | 0.917 | 0.813 | 0.823 | 0.756 | 0.901 | 0.845 | 0.678 | 0.646 | 1.23 | 1.06 |  | 0.381 | 0.315 | 0.357 | 0.325 |  |
| NCI-H661 | 0.461 | 0.394 | 0.404 | 0.349 | 1.01 | 0.916 | 0.973 | 0.575 | 0.568 | 0.735 | 0.776 | 0.807 | 0.791 | 0.663 | 0.448 | 0.496 |
| NCI-H727 | 0.357 | 0.354 | 0.391 | 0.299 | 0.254 | 0.351 | 0.515 | 0.343 | 0.739 | 0.554 | 0.639 | 0.659 | 0.79 | 0.678 | 0.624 | 0.482 |
